# According to patent publication US3935313A, “Pharmaceutical composition containing N-(3-diethyl-aminopropyl)-4-nitro-1-oxide-pyridine-2-carboxamide and process for the treatment of hypertension therewith” (Aron-Samuel; Jan Marcel Didier, priority 1971, dated 1976):
# What was measured:
# [1] = system: dogs made hypertensive by the bilateral destruction of the sensory endings of the sino-carotid area; assay: Anti-hypertensive effect in dogs with destroyed sino-carotid sensory endings; type: in vivo
# Source text: (§1) The anti-hypertensive effect was investigated:
# 1. in dogs made hypertensive by the bilateral destruction of the sensory endings of the sino-carotid area;
# [2] = system: rats made hypertensive by implantation of two 25 mg deoxycorticosterone pellets combined with a sodium enriched diet; assay: Anti-hypertensive effect in deoxycorticosterone/sodium hypertensive rats; type: in vivo
# Method: as §1
# 2. in rats made hypertensive by implantation of two 25 mg deoxycorticosterone pellets combined with a sodium enriched diet;
# [3] = system: rats made hypertensive according to Goldblatt's method; assay: Anti-hypertensive effect in Goldblatt hypertensive rats; type: in vivo
# Source text: as §1
# 3. in rats made hypertensive according to Goldblatt's method (unilateral renal arterial constriction with contralateral nephrectomy).
# normotensive subjects = assay: Effects in normotensive subjects; type: in vivo, Man
# Method: Prior to the therapeutic tests, toxicological and clinical pharmacological investigations were conducted in normotensive Man. […] The systolic pressure is depressed by 2 to 4 cm of mercury, while the diastolic pressure is depressed by 2 cm, on the average.
# Dosage of compound administered: 1 tablet containing 400 mg active ingredient during 1 week, 2 tablets during 1 week, 3 tablets during 3 weeks.
# Dosage of compound administered: 1 tablets containing 400 mg active ingredient during 3 weeks, 2 tablets during the 5 following weeks.
# hypertensive subjects [4] = assay: Therapeutic effects in hypertensive subjects, compound alone
# Method: About a hundred patients were treated with the compound during several months.
# The compound was tested alone at dosages from 300 mg to 5 g daily. […] The results just set forth relate to determinations made with the patients in a recumbent position.
# Teratogenicity in rats = type: in vivo; conditions: 600 mg/kg
# [5] = Chronic toxicity, 6 months, rats; type: in vivo; conditions: up to maximum dose tested 400 mg/kg
# [6] = Teratogenicity in rabbits; type: in vivo; conditions: 200 mg/kg
# [7] = Acute toxicity (method of Lichtfield and Wilcoxon); conditions: in vivo
# Source text: The compound used for such tests is the hydrochloride (LA 2511).
# [8] = system: patients with true hypertension; assay: Clinical experimentation involving 22 hospital patients; type: in vivo, Man; conditions: of 22 patients; criteria: systolic L1, diastolic L2
# Method: Clinical experimentation involving 22 hospital patients.
# Procedure: The patients selected suffer from true hypertension involving both systolic pressure and diastolic pressure. Before starting treatment with the compound, it was ascertained, during a period of time of 8 days, in the absence of any hypotensive treatment, that this hypertension was stable in the morning, at noon and in the evening, in standing, sitting and recumbent positions.
# 1. Effect on blood pressure: the result was evaluated on the basis of the blood pressure depression, expressed as cm of mercury, according to the following criteria: Result Nil Fair Good Very good __________________________________________________________________________ Systolic pressure depression 0 < 3 cm 3-4 cm > 4 cm Diastolic pressure depression 0 <1.5 cm 1.5-2 cm >2 cm __________________________________________________________________________
# 2. Effect on functional signs: headaches, dizziness, floating specks, ear buzzing.
# [9] = Chronic toxicity, 6 months, Rhesus monkeys; type: in vivo; conditions: up to maximum dose tested 400 mg/kg
# hypertensive subjects [10] = assay: Treatment of hypertensive subjects with the compound in combination with other anti-hypertensive materials; type: in vivo, Man
# Method: Combinations of the compound of this invention with other anti-hypertensiveagents were also investigated.
# The most important combination is that with diuretic drugs, as predicted from the efficiency data provided by the pharmacological investigation. A reduction of the dosage of compound of about 50% and/or a three-fold duration of the action are obtained.
# Dosage of compound administered: 5 tablets containing 400 mg active compound daily during 30 days. Associated treatment: salt-free diet, potassium chloride, furosemide: one 40 mg tablet, 3 times a week.
# Dosage of compound administered: 5 tablets containing 400 mg active material, daily during 30 days. Associated treatment: potassium chloride, altizide: 15 mg; spironolactone: 25 mg.
# Treatment during one month with the compound of this invention: 4 tablets daily, containing each 400 mg active ingredient, taken two at a time, plus 4 tablets daily of α-methyl dopa, containing each 250 mg active ingredient, taken two at a time.
# hypertensive subjects [11] = assay: Treatment of a hypertensive patient with α-methyldopa alone; type: in vivo, Man; conditions: TRU... Yves
# Method: Strong functional signs (headaches, dizziness). Treated during one month with α-methyldopa: 2, then 4, then 6 tablets per day, containing each 250 mg active ingredient.
# [12] = oral, 200 mg to 5 g daily, normotensive
# [13] = fraction of subjects, alone, 300 mg to 5 g daily, recumbent
# [14] = more than half the subjects, alone, 300 mg to 5 g daily, recumbent
# [15] = one-fourth of the patients, alone, 300 mg to 5 g daily, recumbent
# [16] = use as anti-hypertensive material in Man
# [17] = GAU... Albert, 5 x 400 mg daily 30 days + altizide 15 mg, spironolactone 25 mg, potassium chloride, prior 21/13
# [18] = GAU... Albert, + altizide, spironolactone
# [19] = SUF... Auguste, 5 x 400 mg daily 30 days + furosemide 40 mg 3 times a week, potassium chloride, salt-free diet, prior 24/12
# [20] = TRU... Yves, 4 x 400 mg daily + α-methyldopa 4 x 250 mg daily, one month, after α-methyldopa alone 21/111/2
# [21] = combination with diuretic drugs
structure (smiles),measurement,setting,value
"CCN(CC)CCCNC(=O)c1cc([N+](=O)[O-])cc[n+]1[O-] [LA 2511, N-(3-diethylaminopropyl)-4-nitro-1-oxide-pyridine-2-carboxamide]",anti-hypertensive efficiency in combination with diuretics,"[1]; in combination with diuretics, stated for the experimental hypertension models together",efficiency is extended
same,anti-hypertensive efficiency,[1]; sino-carotid denervated hypertensive dogs,substantial consistent efficiency
same,anti-hypertensive efficiency,[2],substantial consistent efficiency
same,anti-hypertensive efficiency,[3],substantial consistent efficiency
same,"blood pressure after treatment, recumbent, evening","normotensive subjects; CHA... Paul, 400 mg tablets, 1 for 3 weeks, 2 for 5 weeks, initial 13/8",11/6
same,"blood pressure after treatment, recumbent, morning","normotensive subjects; CHA... Paul, 400 mg tablets, 1 for 3 weeks, 2 for 5 weeks, initial 14/8",12/6
same,tolerance,"normotensive subjects; CHA... Paul, 8 weeks",Excellent tolerance
same,tolerance,"normotensive subjects; VUI... Robert, 5 weeks",Excellent tolerance
same,depression of the blood pressure,normotensive subjects; [12],moderate gradual depression
same,influence on the heart,normotensive subjects; [12],No deleterious influence
same,systolic pressure depression,normotensive subjects; [12],2 to 4 cm of mercury
same,diastolic pressure depression,"normotensive subjects; oral, 200 mg to 5 g daily, normotensive, on the average",2 cm
same,depression of blood pressure under orthostatic conditions,"normotensive subjects; oral, 200 mg to 5 g daily, normotensive, orthostatic",more substantial depression
same,modifications in the electrocardiogram and numerous biological tests,"normotensive subjects; oral, 200 mg to 5 g daily, blood count, sedimentation rate, phosphatases, transaminases, azotemia, glycemia, creatinine clearance, ions, lipids etc.",No modifications were ever noted
same,systemic tolerance,hypertensive subjects [4]; BLA... Isaac,Very good systemic tolerance
same,taste on intake of the tablet,hypertensive subjects [4]; BLA... Isaac,Bitter taste
same,"blood pressure after treatment, recumbent","hypertensive subjects [4]; BLA... Isaac, 6 then 4 tablets of 400 mg daily, 15 days each, prior 20/13",19/1
same,"blood pressure after treatment, sitting","hypertensive subjects [4]; BLA... Isaac, 6 then 4 tablets of 400 mg daily, 15 days each, prior 20/121/2",19/10
same,"blood pressure after treatment, standing","hypertensive subjects [4]; BLA... Isaac, 6 then 4 tablets of 400 mg daily, 15 days each, prior 191/2/10",141/2/10
same,tolerance,hypertensive subjects [4]; PER... Robert,Excellent tolerance
same,"blood pressure after treatment, sitting","hypertensive subjects [4]; PER... Robert, 2, 4, then 6 tablets of 400 mg per day, 28 days, prior 21/12",161/2/10
same,"blood pressure after treatment, standing","hypertensive subjects [4]; PER... Robert, 2, 4, then 6 tablets of 400 mg per day, 28 days, prior 201/2/12",17/10
same,"blood pressure after treatment, recumbent","hypertensive subjects [4]; PER... Robert, 2, 4, then 6 tablets of 400 mg per day, 28 days, prior 211/2/12",15/10
same,functional signs,"hypertensive subjects [4]; PER... Robert, headaches, ear-buzzing",Disappearance of the functional signs
same,return of blood pressure to former levels after interruption,hypertensive subjects [4]; after interruption of administration,3 to 4 days
same,onset of the depression,"hypertensive subjects [4]; alone, 300 mg to 5 g daily",within a few hours or a few days
same,troublesome orthostatic hypotension induced fits of faintness,"hypertensive subjects [4]; alone, 300 mg to 5 g daily",None of the subjects
same,blood pressure in standing position,"hypertensive subjects [4]; alone, 300 mg to 5 g daily, standing","more highly depressed, becoming close to normal or even attaining the normal value"
same,side-effect,hypertensive subjects [4]; disappear when ingested in the middle of a meal and/or dosage decreased,a few cases of gastric pains and nausea
same,patients with moderate depression,"hypertensive subjects [4]; fraction of patients, alone, 300 mg to 5 g daily, recumbent",One-fourth
same,hypertensive subjects with substantial depression of the blood pressure,hypertensive subjects [4]; [13],more than half
same,subjects non-influenced,hypertensive subjects [4]; [13],Less than one-fourth
same,diastolic pressure depression in subjects with substantial depression,hypertensive subjects [4]; [14],> 2 cm of mercury
same,systolic pressure depression in subjects with substantial depression,hypertensive subjects [4]; [14],> 4 cm of mercury
same,diastolic pressure depression in patients with moderate depression,hypertensive subjects [4]; [15],about 1 cm
same,systolic pressure depression in patients with moderate depression,hypertensive subjects [4]; [15],about 2 cm
same,action,"hypertensive subjects [4]; oral, 200 mg to 5 g daily",rapid but gradual action
same,toxicity and tolerance,"hypertensive subjects [4]; oral, 200 mg to 5 g daily","free from toxicity, well tolerated"
same,"effects on blood pressure versus diuretic drugs, α-methyldopa and other hypotensive agents",hypertensive subjects [4]; particularly with respect to the diastolic pressure,much more rapid and much more positive
same,effect on the diastolic pressure in Man,hypertensive subjects [4]; [16],well established
same,efficiency in Man,hypertensive subjects [4]; [16],excellent efficiency
same,toxicity in Man,hypertensive subjects [4]; [16],free from toxicity
same,teratogenic effect,Teratogenicity in rats,No teratogenic effect
same,toxic effect on chronic treatment,[5],no toxic effect
same,teratogenic effect,[6],No teratogenic effect
same,LD50,[7],2000 mg/kg
same,"number of ""fair"" results",[8],5 results
same,"number of ""good"" and ""very good"" results",[8],13 results
same,"number of ""nil"" results",[8],4 results
same,toxic effect on chronic treatment,[9],no toxic effect
same,"blood pressure after treatment, standing","hypertensive subjects [10]; GAU... Albert, 5 x 400 mg daily 30 days + altizide 15 mg, spironolactone 25 mg, potassium chloride, prior 20/121/2",14/9
same,"blood pressure after treatment, recumbent",hypertensive subjects [10]; [17],16/10
same,"blood pressure after treatment, sitting",hypertensive subjects [10]; [17],16/10
same,digestive tolerance,hypertensive subjects [10]; [18],Fair digestive tolerance
same,systemic tolerance,hypertensive subjects [10]; [18],Very good systemic tolerance
same,functional signs,"hypertensive subjects [10]; GAU... Albert, + altizide, spironolactone, floating specks, headaches, dizziness, ear-buzzing",Improvement of the functional signs
same,"blood pressure after treatment, sitting",hypertensive subjects [10]; [19],18/10
same,"blood pressure after treatment, standing",hypertensive subjects [10]; [19],17/9
same,"blood pressure after treatment, recumbent","hypertensive subjects [10]; SUF... Auguste, 5 x 400 mg daily 30 days + furosemide 40 mg 3 times a week, potassium chloride, salt-free diet, prior 24/13",18/10
same,digestive and systemic tolerance,"hypertensive subjects [10]; SUF... Auguste, + furosemide",Very good digestive and systemic tolerance
same,functional signs,"hypertensive subjects [10]; SUF... Auguste, + furosemide, floating specks, headaches, ear-buzzing",Marked decrease of the functional signs
same,"blood pressure after treatment, standing","hypertensive subjects [10]; TRU... Yves, 4 x 400 mg daily + α-methyldopa 4 x 250 mg daily, one month, after α-methyldopa alone 20/11",18/9
same,"blood pressure after treatment, recumbent",hypertensive subjects [10]; [20],19/101/2
same,"blood pressure after treatment, sitting",hypertensive subjects [10]; [20],19/10
same,functional signs,"hypertensive subjects [10]; TRU... Yves, + α-methyldopa, particularly the headaches",Marked decrease of the functional signs
same,duration of the action,hypertensive subjects [10]; [21],three-fold
same,reduction of the dosage of compound,hypertensive subjects [10]; [21],about 50%
same,efficiency of combination with diuretics,hypertensive subjects [10]; combination with diuretics,particularly efficient combination
same,safety of combination,hypertensive subjects [10]; combined with other anti-hypertensive materials currently used,safely be combined
C[C@](N)(Cc1ccc(O)c(O)c1)C(=O)O [α-methyldopa],"blood pressure after treatment with α-methyldopa, standing","hypertensive subjects [11]; 2, 4, then 6 tablets of 250 mg per day, one month, prior 22/12",20/11
same,"blood pressure after treatment with α-methyldopa, recumbent","hypertensive subjects [11]; 2, 4, then 6 tablets of 250 mg per day, one month, prior 23/12",21/111/2
same,"blood pressure after treatment with α-methyldopa, sitting","hypertensive subjects [11]; 2, 4, then 6 tablets of 250 mg per day, one month, prior 23/111/2",21/111/2
same,functional signs,"hypertensive subjects [11]; α-methyldopa alone, headaches, dizziness",Slight decrease of the functional signs
